Earlier results on one compound are cited in US12533314B2, “Low sodium oxybate once nightly composition” (Tris Pharma, Inc., priority 2023, dated 2026).

The conditions of the series: in vivo.

Each structure is given as a SMILES string.

For `O=C(O)CCCO` [Oxybate, Gamma-hydroxybutyrate], the plasma half-life was 30 to 45 min.
